Measured values: patent US9815835B2, “Substituted polycyclic carbamolypyridone derivative” (priority 2009, dated 2017)

What follows are compounds tested on influenza virus (assay: microbe, parasite or virus in culture). Conditions: unidentified influenza virus, 72 h, read-out: CPE EC50.
Type: cell-based, influenza virus (MDBK or MDCK cells)
With COCCCC1N(C(C)C)C(=O)c2c(O)c(=O)ccn2N1C1c2cccc(F)c2CCc2c(F)cccc21 (centres unmarked) [Example 523] the EC50 was 14 nM.

Same assay, conditions: unidentified influenza virus, 72 h, read-out: CPE EC50, effective concentration to achieve 50% CPE inhibition, 3 days incubation, WST-8
Compound COCCN1CN(C2c3ccccc3COc3ccc(F)cc32)n2ccc(=O)c(O)c2C1=O (centres unmarked) [Example 401] has an EC50 of 133 nM. O=C(O)c1cn2c(c(O)c1=O)C(=O)N1CCCCN1C2C(c1ccccc1)c1ccccc1 (centres unmarked) [Example 507] was tested, and the EC50 was 197 nM. COCCCC1N(C(C)C)C(=O)c2c(O)c(=O)ccn2N1C1c2ccc(F)cc2CCc2cc(F)ccc21 (centres unmarked) [Example 526] showed an EC50 of 19 nM. In the case of O=C1c2c(O)c(=O)ccn2N(C2c3ccccc3CCc3ccccc32)CN1CC(F)(F)F [Example 263], the EC50 is reported as 75 nM. With COCC(COC)N1CN(C2c3ccccc3CSc3ccccc32)n2ccc(=O)c(O)c2C1=O (centres unmarked) [Example 318] the EC50 was 15 nM. Work on CC(C)C[C@H](CO)N1CN(C2c3ccccc3CSc3ccccc32)n2ccc(=O)c(O)c2C1=O (some centres unmarked) [Example 374] yielded an EC50 of 154 nM. CC(N1CN(C(c2ccccc2)c2ccccc2Cl)n2ccc(=O)c(O)c2C1=O)C(F)(F)F (centres unmarked) [Example 242] showed an EC50 of 59 nM. C[C@H](N1CN([C@@H]2c3ccccc3CSc3ccccc32)n2ccc(=O)c(O)c2C1=O)C(F)(F)F [Example 415] gave an EC50 of 22 nM. CC(C)N1CN(C2c3ccccc3CSc3ccccc32)n2cc(C(=O)O)c(=O)c(O)c2C1=O (centres unmarked) [Example 492] gave an EC50 of 160 nM. For CC(C)(C)N1CN(C2c3ccccc3CCc3ccccc32)n2ccc(=O)c(O)c2C1=O [Example 265], the EC50 was 36 nM. Work on CN(C)CC1N(CCO)C(=O)c2c(O)c(=O)ccn2N1C1c2ccccc2CCc2ccccc21 (centres unmarked) [Example 551] yielded an EC50 of 107 nM. Work on O=C(O)c1cn2c(c(O)c1=O)C(=O)N(Cc1ccc(F)cc1F)C[C@@H]2C(c1ccccc1)c1ccccc1 [Example 16] yielded an EC50 of 632 nM. Work on C[C@@H](N1CN([C@H]2c3ccccc3COc3c(F)cccc32)n2ccc(=O)c(O)c2C1=O)C(F)(F)F [Example 425] yielded an EC50 of 47 nM. CCCN1C[C@H](C(c2ccccc2)c2ccccc2)n2cc(C(=O)O)c(=O)c(O)c2C1=O [Example 181] was tested, and the EC50 was 349 nM. CC(C)N1CN(C2c3cc(F)ccc3CCc3ccc(F)cc32)n2ccc(=O)c(O)c2C1=O [Example 279] gave an EC50 of 119 nM. Compound CS(=O)(=O)CCN1CN(C2c3ccccc3CCc3ccccc32)n2ccc(=O)c(O)c2C1=O [Example 269] has an EC50 of 417 nM. Work on CCOCCN1CN(C2c3ccccc3CSc3ccccc32)n2ccc(=O)c(O)c2C1=O (centres unmarked) [Example 312] yielded an EC50 of 29 nM. In the case of CCCC1N(C(C)C)C(=O)c2c(O)c(=O)ccn2N1C1c2ccccc2CCc2ccccc21 (centres unmarked) [Example 518], the EC50 is reported as 24 nM. Work on CC(C)N1CN(C2c3ccccc3CSc3c(F)cccc32)n2ccc(=O)c(O)c2C1=O (centres unmarked) [Example 351] yielded an EC50 of 19 nM. O=C1c2c(O)c(=O)ccn2N(C2c3ccccc3CSc3ccccc32)CN1CC(F)(F)F (centres unmarked) [Example 306] was tested, and the EC50 was 21 nM. COCCN1C(=O)c2c(O)c(=O)c(C(=O)O)cn2N(C2c3ccccc3CCc3ccccc32)C1CCSC (centres unmarked) [Example 556] was tested, and the EC50 was 412 nM. Compound O=C1c2c(O)c(=O)ccn2N(C2c3ccccc3CCc3ccccc32)CN1CC(O)CO (centres unmarked) [Example 364] has an EC50 of 515 nM. For CC(C)N1CN(Cc2ccc(Cl)c(Cl)c2)n2ccc(=O)c(O)c2C1=O [Example 199], the EC50 was 2720 nM. With CC(=O)OCC(C)N1CN(C2c3ccccc3CCc3ccccc32)n2ccc(=O)c(O)c2C1=O (centres unmarked) [Example 261] the EC50 was 47 nM. For O=C1c2c(O)c(=O)ccn2N(C2c3ccccc3CCc3ccccc32)CN1CCF [Example 262], the EC50 was 38 nM. Work on CC(CN(C)C)N1CN(C2c3ccccc3CSc3ccccc32)n2ccc(=O)c(O)c2C1=O (centres unmarked) [Example 480] yielded an EC50 of 84 nM. CC(C)N1CN(C2c3ccccc3CCc3c(Cl)cccc32)n2ccc(=O)c(O)c2C1=O (centres unmarked) [Example 282] was tested, and the EC50 was 29 nM. Work on COCCCN1CN(C2c3ccccc3CCc3ccccc32)n2ccc(=O)c(O)c2C1=O [Example 267] yielded an EC50 of 63 nM. With C[C@@H](N1CN([C@H]2c3ccccc3CSc3ccccc32)n2ccc(=O)c(O)c2C1=O)C(F)(F)F [Example 413] the EC50 was 5 nM. Work on C[C@@H](N1CN([C@@H]2c3cc(Cl)ccc3CSc3ccccc32)n2ccc(=O)c(O)c2C1=O)C(F)(F)F [Example 443] yielded an EC50 of 4 nM. Work on N#Cc1ccccc1N1CC(C2c3ccccc3CCc3ccccc32)n2ccc(=O)c(O)c2C1=O (centres unmarked) [Example 568] yielded an EC50 of 2810 nM. With CC(C)=CCN1C[C@H](C(c2ccccc2)c2ccccc2)n2cc(C(=O)O)c(=O)c(O)c2C1=O [Example 182] the EC50 was 562 nM. Work on CC(C)N1CN(C2c3ccccc3CCc3ccccc32)n2cc(C(=O)O)c(=O)c(O)c2C1=O [Example 491] yielded an EC50 of 99 nM. COCCN1CN(C2c3ccccc3COc3cc(F)ccc32)n2ccc(=O)c(O)c2C1=O (centres unmarked) [Example 397] gave an EC50 of 77 nM. For CC(CN(C)C)N1CN(C2c3ccccc3CCc3ccccc32)n2ccc(=O)c(O)c2C1=O (centres unmarked) [Example 479], the EC50 was 64 nM. CC(C)N1CN(C2c3ccccc3COc3ccccc32)n2ccc(=O)c(O)c2C1=O (centres unmarked) [Example 391] gave an EC50 of 71 nM. In the case of CC(C)N1CN(C2c3ccc(Cl)cc3COc3ccccc32)n2ccc(=O)c(O)c2C1=O (centres unmarked) [Example 409], the EC50 is reported as 29 nM. For COCCCC1N(C(C)C)C(=O)c2c(O)c(=O)ccn2N1C1c2ccccc2CCc2ccccc21 (centres unmarked) [Example 522], the EC50 was 14 nM. C[C@@H](N1CN([C@H]2c3ccc(C(F)(F)F)cc3CSc3ccccc32)n2ccc(=O)c(O)c2C1=O)C(F)(F)F [Example 432] showed an EC50 of 62 nM. Work on COCCN1CN(C2c3ccccc3CCc3ccccc32)n2ccc(=O)c(O)c2C1=O [Example 258] yielded an EC50 of 28 nM. CC(C)N1C(=O)c2c(O)c(=O)ccn2N(C2c3ccccc3CCc3ccccc32)C1CCCN (centres unmarked) [Example 534] gave an EC50 of 1200 nM. Compound CC(CO)N1CN(C2c3ccccc3CCc3ccccc32)n2ccc(=O)c(O)c2C1=O (centres unmarked) [Example 362] has an EC50 of 67 nM. O=C1c2c(O)c(=O)ccn2N(C2c3ccccc3CSc3ccccc32)CN1CCCF (centres unmarked) [Example 298] gave an EC50 of 12 nM. Compound CC(N1CN(C2c3ccccc3COc3c(F)cccc32)n2ccc(=O)c(O)c2C1=O)C(F)(F)F (centres unmarked) [Example 406] has an EC50 of 22 nM. With C[C@H](N1CN([C@H]2c3ccccc3CSc3c(F)cccc32)n2ccc(=O)c(O)c2C1=O)C(F)(F)F [Example 453] the EC50 was 49 nM. CCCC(C)N1C[C@H](C(c2ccccc2)c2ccccc2)n2cc(C(=O)O)c(=O)c(O)c2C1=O (some centres unmarked) [Example 187] gave an EC50 of 282 nM. Work on CN1CCC(CN2CN(C3c4ccccc4CSc4ccccc43)n3ccc(=O)c(O)c3C2=O)CC1 (centres unmarked) [Example 292] yielded an EC50 of 2230 nM. O=C1c2c(O)c(=O)ccn2N(C2c3ccccc3CSc3ccccc32)CN1CCOC(F)(F)F (centres unmarked) [Example 297] was tested, and the EC50 was 33 nM. For COCC(COC)N1CN(C2c3cc(F)ccc3CSc3ccc(F)cc32)n2ccc(=O)c(O)c2C1=O (centres unmarked) [Example 340], the EC50 was 27 nM. For CC(N1CN(C2c3ccccc3CSc3c(F)cccc32)n2ccc(=O)c(O)c2C1=O)C(F)(F)F (centres unmarked) [Example 342], the EC50 was 26 nM. CC(C)N1CN(C2c3ccc(F)cc3CCc3cc(F)ccc32)n2ccc(=O)c(O)c2C1=O [Example 284] showed an EC50 of 19 nM. CCN(CC)CC1N(CCO)C(=O)c2c(O)c(=O)ccn2N1C1c2ccccc2CCc2ccccc21 (centres unmarked) [Example 550] showed an EC50 of 42 nM. For CC(C)N1C(=O)c2c(O)c(=O)ccn2N(C2c3ccccc3CCc3ccccc32)C1CCN (centres unmarked) [Example 533], the EC50 was 391 nM. In the case of CC(C)(C)[C@H](CO)N1CN(C2c3ccccc3CSc3ccccc32)n2ccc(=O)c(O)c2C1=O (some centres unmarked) [Example 381], the EC50 is reported as 34 nM.

Each compound was assayed against cap-dependent endonuclease (RNP fraction containing PB1•PB2•PA complex) (Influenza A virus, UniProt P15659) (assay: biochemical). Conditions: RNP from A/WSN/33 virus, capped Cy3/BHQ2 30mer RNA substrate, 60 minutes at room temperature; read-out: CEN IC50.
C[C@@H](N1CN([C@H]2c3ccc(F)cc3CSc3c(F)cccc32)n2ccc(=O)c(O)c2C1=O)C(F)(F)F [Example 470] gave an IC50 of 8 nM. CN1CN(C2c3ccccc3CSc3cc(Cl)ccc32)n2ccc(=O)c(O)c2C1=O (centres unmarked) [Example 348] showed an IC50 of 54 nM. COCCN1CN(C2c3ccccc3COc3c(Cl)cccc32)n2ccc(=O)c(O)c2C1=O (centres unmarked) [Example 396] was tested, and the IC50 was 56 nM. CC(C)C1N(CCO)C(=O)c2c(O)c(=O)ccn2N1C1c2ccccc2CCc2ccccc21 (centres unmarked) [Example 553] showed an IC50 of 28 nM. COCCN1C[C@H](C(c2ccccc2)c2ccccc2)n2cc(CO)c(=O)c(O)c2C1=O [Example 48] was tested, and the IC50 was 87 nM. With COCCN1CN(C(c2ccccc2)c2ccccc2)n2cc(C(=O)O)c(=O)c(O)c2C1=O [Example 94] the IC50 was 96 nM. For C[C@@H](N1CN([C@H]2c3cccc(F)c3CSc3c(F)cccc32)n2ccc(=O)c(O)c2C1=O)C(F)(F)F [Example 469], the IC50 was 16 nM. Compound CC(=O)N(C)CC1N(C(C)C)C(=O)c2c(O)c(=O)ccn2N1C1c2ccccc2CCc2ccccc21 (centres unmarked) [Example 525] has an IC50 of 141 nM. CC(C)N1CN(C2c3ccccc3CSc3cc(F)ccc32)n2ccc(=O)c(O)c2C1=O (centres unmarked) [Example 352] was tested, and the IC50 was 67 nM. O=C(NCCN1CN(C(c2ccccc2)c2ccccc2)n2ccc(=O)c(O)c2C1=O)c1ccccc1 [Example 150] gave an IC50 of 193 nM. Compound C[C@@H](N1CN([C@@H]2c3ccccc3SCc3c(Br)cccc32)n2ccc(=O)c(O)c2C1=O)C(F)(F)F [Example 463] has an IC50 of 12 nM. With C[C@@H](N1CN([C@@H]2c3ccccc3SCc3c(Cl)cccc32)n2ccc(=O)c(O)c2C1=O)C(F)(F)F [Example 417] the IC50 was 30 nM. C[C@@H](N1CN([C@H]2c3ccc(F)cc3CSc3ccccc32)n2ccc(=O)c(O)c2C1=O)C(F)(F)F [Example 454] was tested, and the IC50 was 12 nM. Work on O=C1c2c(O)c(=O)ccn2N(C2c3ccccc3CSc3ccccc32)CN1C1CCC(F)(F)CC1 (centres unmarked) [Example 313] yielded an IC50 of 189 nM. CN(CCN1CN(C(c2ccccc2)c2ccccc2)n2ccc(=O)c(O)c2C1=O)S(=O)(=O)c1ccccc1 [Example 138] gave an IC50 of 166 nM. With Cc1cccc2c1SCc1ccccc1C2N1CN(C(C)C)C(=O)c2c(O)c(=O)ccn21 (centres unmarked) [Example 356] the IC50 was 66 nM. In the case of COCCN1CN(Cc2ccccc2-c2ccccc2)n2ccc(=O)c(O)c2C1=O [Example 99], the IC50 is reported as 341 nM. COCC(COC)N1CN(C2c3ccccc3CSc3c(F)cccc32)n2ccc(=O)c(O)c2C1=O (centres unmarked) [Example 339] gave an IC50 of 183 nM. With COCCN1C[C@H](C(c2ccccc2)c2ccccc2)n2cc(OC)c(=O)c(O)c2C1=O [Example 62] the IC50 was 110 nM.
